From patent US20220389061A1, “IMMUNOMODULATORS” (priority 2019, published 2022)
Starred links: 1 amine or outer side, 2 acyl side, 3 side chain; linkers in the order of their positions; H or OH if unused. Positions of bridges follow the written chain, without caps; N, C: chain ends. Non-standard residues stand in square brackets, D forms with d. Residues, ends and D or L forms follow the SMILES beside them. Groups on a side chain read outwards from the residue. *: point of attachment. Trp(1-CH2CO2Me) = COC(=O)Cn1cc(C[C@H](N)C(=O)O)c2ccccc21; Trp(1-CH2COOH) = N[C@@H](Cc1cn(CC(=O)O)c2ccccc12)C(=O)O; Benzoyl(2-(4-MeOPh)) = COc1ccc(-c2ccccc2C(=O)*)cc1; X18 = O=[N+]([O-])c1ccc(NC(=S)*)c(Cl)c1; X67 = S=C(Nc1c(Cl)c(Cl)cc(Cl)c1Cl)*; Hyp = O=C(O)[C@@H]1C[C@@H](O)CN1; X32 = c1ccc2c(c1)Cc1cc(N*)ccc1-2; X42 = S=C(Nc1ccc2nccnc2c1Br)*; NMeNle = CCCC[C@H](NC)C(=O)O; X22 = c1ccc(N(c2ccccc2)*)cc1; X20 = O=C(Oc1ccc2ccccc2c1)*; X52 = c1ccc2c(N*)c[nH]c2c1; X82 = S=C(Nc1cccc2nsnc12)*; NMeA = CN[C@@H](C)C(=O)O; βNA = c1ccc2cc(N*)ccc2c1; Dab = NCC[C@H](N)C(=O)O; Dap = NC[C@H](N)C(=O)O; CO = O=C([*:1])[*:2]

Target: T1, PD-1/PD-L1 (Homo sapiens, UniProt Q9NZQ7)
T1 construct: TVMV protease site linker (C); made in house; host or cells: HEK293T cells
T1 sequence (Q9NZQ7 18-239): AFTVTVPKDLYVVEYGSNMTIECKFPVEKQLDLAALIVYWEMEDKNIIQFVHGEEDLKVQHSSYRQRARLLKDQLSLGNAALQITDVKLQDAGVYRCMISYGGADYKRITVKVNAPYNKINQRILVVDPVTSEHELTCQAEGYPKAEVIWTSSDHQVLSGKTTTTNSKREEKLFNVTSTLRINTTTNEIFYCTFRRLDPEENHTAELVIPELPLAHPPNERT
Experiment: PD-1/PD-L1 Homogenous Time-Resolved Fluorescence (HTRF) binding assay
Conditions: not given
Method in brief: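 Compounds preincubated 15 min with PD-L1-His (10 nM final), then PD-1-Ig (20 nM final) added for 15 min in dPBS with 0.1% BSA, 0.05% Tween-20. Detection by Eu-cryptate anti-Ig (1 nM) and APC anti-His (20 nM) HTRF.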

Row | SMILES | IC50 [nM]
1 | CCCC[C@H]1C(=O)N(C)[C@@H](CCCC)C(=O)N[C@@H](CC(C)C)C(=O)N[C@H](C(=O)NCC(N)=O)CSCC(=O)N[C@@H](Cc2ccc(O)cc2)C(=O)N(C)[C@@H](C)C(=O)N[C@@H](CC(N)=O)C(=O)N2CCC[C@H]2C(=O)N[C@@H](CNC(=O)Nc2ccc3ccccc3c2)C(=O)N[C@@H](CC(C)C)C(=O)N2C[C@H](O)C[C@H]2C(=O)N[C@@H](Cc2c[nH]c3ccccc23)C(=O)N[C@@H](CCNC(=O)Nc2ccc3ccccc3c2)C(=O)N[C@@H](Cc2cn(CC(=O)O)c3ccccc23)C(=O)N1C [Example 3001] ({CH2CO}-Y[NMeA]NP[Dap]([CO-βNA])L[Hyp]W[Dab]([CO-βNA])[Trp(1-CH2COOH)][NMeNle][NMeNle]LCG-NH2; thioether N-14) | 7.3
2 | CCCC[C@H]1C(=O)N(C)[C@@H](CCCC)C(=O)N[C@@H](CC(C)C)C(=O)N[C@H](C(=O)NCC(N)=O)CSCC(=O)N[C@@H](Cc2ccc(O)cc2)C(=O)N(C)[C@@H](C)C(=O)N[C@@H](CC(N)=O)C(=O)N2CCC[C@H]2C(=O)N[C@@H](CNC(=O)Nc2ccc3c(c2)Cc2ccccc2-3)C(=O)N[C@@H](CC(C)C)C(=O)N2C[C@H](O)C[C@H]2C(=O)N[C@@H](Cc2c[nH]c3ccccc23)C(=O)N[C@@H](CCN)C(=O)N[C@@H](Cc2cn(CC(=O)O)c3ccccc23)C(=O)N1C [Example 2009] ({CH2CO}-Y[NMeA]NP[Dap]([CO-X32])L[Hyp]W[Dab][Trp(1-CH2COOH)][NMeNle][NMeNle]LCG-NH2; thioether N-14) | 3.6
3 | CCCC[C@H]1C(=O)N(C)[C@@H](CCCC)C(=O)N[C@@H](CC(C)C)C(=O)N[C@H](C(=O)NCC(N)=O)CSCC(=O)N[C@@H](Cc2ccc(O)cc2)C(=O)N(C)[C@@H](C)C(=O)N[C@@H](CC(N)=O)C(=O)N2CCC[C@H]2C(=O)N[C@@H](CNC(=O)Oc2ccc3ccccc3c2)C(=O)N[C@@H](CC(C)C)C(=O)N2C[C@H](O)C[C@H]2C(=O)N[C@@H](Cc2c[nH]c3ccccc23)C(=O)N[C@@H](CCN)C(=O)N[C@@H](Cc2cn(CC(=O)O)c3ccccc23)C(=O)N1C [Example 3045] ({CH2CO}-Y[NMeA]NP[Dap](X20)L[Hyp]W[Dab][Trp(1-CH2COOH)][NMeNle][NMeNle]LCG-NH2; thioether N-14) | 1.3

Same assay, conditions: PD-L1-His 10 nM pre-incubated with inhibitor, PD-1-Ig 20 nM; read-out: HTRF IC50

Row | IC50 [nM] | SMILES
4 | 0.3 | CCCC[C@H]1C(=O)N(C)[C@@H](CCCC)C(=O)N[C@@H](CC(C)C)C(=O)N[C@H](C(=O)NCC(N)=O)CSCC(=O)N[C@@H](Cc2ccc(O)cc2)C(=O)N(C)[C@@H](C)C(=O)N[C@@H](CC(N)=O)C(=O)N2CCC[C@H]2C(=O)N[C@@H](CNC(=O)Nc2c[nH]c3ccccc23)C(=O)N[C@@H](CC(C)C)C(=O)N2C[C@H](O)C[C@H]2C(=O)N[C@@H](Cc2c[nH]c3ccccc23)C(=O)N[C@@H](CCN)C(=O)N[C@@H](Cc2cn(CC(=O)O)c3ccccc23)C(=O)N1C [Example 3041] ({CH2CO}-Y[NMeA]NP[Dap]([CO-X52])L[Hyp]W[Dab][Trp(1-CH2COOH)][NMeNle][NMeNle]LCG-NH2; thioether N-14)
5 | 0.6 | CCCC[C@H]1C(=O)N(C)[C@@H](CCCC)C(=O)N[C@@H](CC(C)C)C(=O)N[C@H](C(=O)NCC(N)=O)CSCC(=O)N[C@@H](Cc2ccc(O)cc2)C(=O)N(C)[C@@H](C)C(=O)N[C@@H](CC(N)=O)C(=O)N2CCC[C@H]2C(=O)N[C@@H](CNC(=S)Nc2cccc3nsnc23)C(=O)N[C@@H](CC(C)C)C(=O)N2C[C@H](O)C[C@H]2C(=O)N[C@@H](Cc2c[nH]c3ccccc23)C(=O)N[C@@H](CCN)C(=O)N[C@@H](Cc2cn(CC(=O)O)c3ccccc23)C(=O)N1C [Example 3016] ({CH2CO}-Y[NMeA]NP[Dap](X82)L[Hyp]W[Dab][Trp(1-CH2COOH)][NMeNle][NMeNle]LCG-NH2; thioether N-14)
6 | 2 | CCCC[C@H]1C(=O)N(C)[C@@H](CCCC)C(=O)N[C@@H](CC(C)C)C(=O)N[C@H](C(=O)NCC(N)=O)CSCC(=O)N[C@@H](Cc2ccc(O)cc2)C(=O)N(C)[C@@H](C)C(=O)N[C@@H](CC(N)=O)C(=O)N2CCC[C@H]2C(=O)N[C@@H](CNC(=S)Nc2c(Cl)c(Cl)cc(Cl)c2Cl)C(=O)N[C@@H](CC(C)C)C(=O)N2C[C@H](O)C[C@H]2C(=O)N[C@@H](Cc2c[nH]c3ccccc23)C(=O)N[C@@H](CCN)C(=O)N[C@@H](Cc2cn(CC(=O)O)c3ccccc23)C(=O)N1C [Example 1110] ({CH2CO}-Y[NMeA]NP[Dap](X67)L[Hyp]W[Dab][Trp(1-CH2COOH)][NMeNle][NMeNle]LCG-NH2; thioether N-14)
7 | 9 | CCCC[C@H]1C(=O)N(C)[C@@H](CCCC)C(=O)N[C@@H](CC(C)C)C(=O)N[C@H](C(=O)NCC(N)=O)CSCC(=O)N[C@@H](Cc2ccc(O)cc2)C(=O)N(C)[C@@H](C)C(=O)N[C@@H](CC(N)=O)C(=O)N2CCC[C@H]2C(=O)N[C@@H](CNC(=S)Nc2ccc([N+](=O)[O-])cc2Cl)C(=O)N[C@@H](CC(C)C)C(=O)N2C[C@H](O)C[C@H]2C(=O)N[C@@H](Cc2c[nH]c3ccccc23)C(=O)N[C@@H](CCN)C(=O)N[C@@H](Cc2cn(CC(=O)O)c3ccccc23)C(=O)N1C [Example 1111] ({CH2CO}-Y[NMeA]NP[Dap](X18)L[Hyp]W[Dab][Trp(1-CH2COOH)][NMeNle][NMeNle]LCG-NH2; thioether N-14)
8 | 5.8 | CCCC[C@H]1C(=O)N(C)[C@@H](CCCC)C(=O)N[C@@H](CC(C)C)C(=O)N[C@H](C(=O)NCC(N)=O)CSCC(=O)N[C@@H](Cc2ccc(O)cc2)C(=O)N(C)[C@@H](C)C(=O)N[C@@H](CC(N)=O)C(=O)N2CCC[C@H]2C(=O)N[C@@H](CNC(=S)Nc2ccc3nccnc3c2Br)C(=O)N[C@@H](CC(C)C)C(=O)N2C[C@H](O)C[C@H]2C(=O)N[C@@H](Cc2c[nH]c3ccccc23)C(=O)N[C@@H](CCN)C(=O)N[C@@H](Cc2cn(CC(=O)O)c3ccccc23)C(=O)N1C [Example 3047] ({CH2CO}-Y[NMeA]NP[Dap](X42)L[Hyp]W[Dab][Trp(1-CH2COOH)][NMeNle][NMeNle]LCG-NH2; thioether N-14)

More lines, now with the values behind:

Row | SMILES | IC50 [nM]
9 | CCCC[C@H]1C(=O)N(C)[C@@H](CCCC)C(=O)N[C@@H](CC(C)C)C(=O)N[C@H](C(=O)NCC(N)=O)CSCC(=O)N[C@@H](Cc2ccc(O)cc2)C(=O)N(C)[C@@H](C)C(=O)N[C@@H](CC(N)=O)C(=O)N2CCC[C@H]2C(=O)N[C@@H](CNC(=O)N(c2ccccc2)c2ccccc2)C(=O)N[C@@H](CC(C)C)C(=O)N2C[C@H](O)C[C@H]2C(=O)N[C@@H](Cc2c[nH]c3ccccc23)C(=O)N[C@@H](CCNC(=O)N(c2ccccc2)c2ccccc2)C(=O)N[C@@H](Cc2cn(CC(=O)OC)c3ccccc23)C(=O)N1C [Example 1004] ({CH2CO}-Y[NMeA]NP[Dap]([CO-X22])L[Hyp]W[Dab]([CO-X22])[Trp(1-CH2CO2Me)][NMeNle][NMeNle]LCG-NH2; thioether N-14) | 23
10 | CCCC[C@H]1C(=O)N(C)[C@@H](CCCC)C(=O)N[C@@H](CC(C)C)C(=O)N[C@H](C(=O)NCC(N)=O)CSCC(=O)N[C@@H](Cc2ccc(OC)cc2)C(=O)N(C)[C@@H](C)C(=O)N[C@@H](CC(N)=O)C(=O)N2CCC[C@H]2C(=O)N[C@@H](CNC(=O)c2ccccc2-c2ccc(OC)cc2)C(=O)N[C@@H](CC(C)C)C(=O)N2C[C@H](O)C[C@H]2C(=O)N[C@@H](Cc2c[nH]c3ccccc23)C(=O)N[C@@H](CCNC(=O)c2ccccc2-c2ccc(OC)cc2)C(=O)N[C@@H](Cc2cn(CC(=O)OC)c3ccccc23)C(=O)N1C [Example 1075] ({CH2CO}-Y(Me)[NMeA]NP[Dap](Benzoyl(2-(4-MeOPh)))L[Hyp]W[Dab](Benzoyl(2-(4-MeOPh)))[Trp(1-CH2CO2Me)][NMeNle][NMeNle]LCG-NH2; thioether N-14) | 91
